Assay results as given in ChEMBL document CHEMBL1158913, “Peroxy Aliphatic Esters from the Sponge Plakortis lita” (1990).

Test system: P388
Experiment: Cytotoxicity against mouse P388 cells
Type: functional
Details: read-out: ED50 (the source's name)

`CCCCCCCCCCCCCCCC[C@@]1(OC)C=C[C@@H](CC(=O)OC)OO1` [CHONDRILLIN] gave an EC50 of over 10 µg/mL.

`C/C=C/C=C/CCCCCCCCCCC[C@]1(OC)C=C[C@H](CC(=O)OC)OO1` gave an EC50 of over 10 µg/mL.
